Active and inactive are the calls of the source. The calls are words filed in the database; no cut-off is given here.
Key:
[1] = biological target: T1, Retinoic acid receptor RXR-alpha (Homo sapiens, UniProt P19793); assay: Binding affinity to RXRalpha LBD (unknown origin) assessed as increase in response unit by measuring dissociation constant by SPR analysis
T1 sequence (P19793 whole entry): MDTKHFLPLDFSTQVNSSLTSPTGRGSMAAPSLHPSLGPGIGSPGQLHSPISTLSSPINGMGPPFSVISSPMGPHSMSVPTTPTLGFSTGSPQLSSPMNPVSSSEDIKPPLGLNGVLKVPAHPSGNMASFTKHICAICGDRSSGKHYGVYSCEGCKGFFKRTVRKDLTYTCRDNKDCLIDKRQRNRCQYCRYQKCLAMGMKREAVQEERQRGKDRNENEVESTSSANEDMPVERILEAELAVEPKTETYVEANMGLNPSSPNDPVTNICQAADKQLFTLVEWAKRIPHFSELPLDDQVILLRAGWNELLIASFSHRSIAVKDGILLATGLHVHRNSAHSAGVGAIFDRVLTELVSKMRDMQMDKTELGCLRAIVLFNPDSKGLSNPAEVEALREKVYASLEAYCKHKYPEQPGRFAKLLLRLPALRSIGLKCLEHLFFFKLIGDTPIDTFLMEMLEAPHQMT

MDA-MB-231 [2] = assay: Upregulation of phosphorylated RXRalpha protein level in human MDA-MB-231 cells at 125 to 500 nM incubated for 24 hrs in presence of thermosensitive alkaline phosphatase by Western blot analysis; assay type: functional, cell-based; conditions: dose 125-500 nM
[3] = AUC (0 to infinity) in Sprague-Dawley rat at 25 mg/kg, ip measured for 48 hrs by LC-MS/MS analysis; assay type: ADME, organism-based; set-up: time 48 hrs, dose 25 mg/kg, route ip; conditions: in vivo
A549 [4] = assay: Induction of cell cycle arrest in human A549 cells assessed as accumulation of cells at G2 phase at 125 nM incubated for 12 hrs by flow cytometry analysis (reference value: 8.62%); assay type: functional
A549 [5] = assay: Induction of apoptosis in human A549 cells assessed as live cells at 31.25 nM incubated for 24 hrs by annexin V-FITC/PI staining based flow cytometry analysis (reference value: 93.2%); assay type: functional
[6] = Toxicity in BALB/c mouse xenografted with human MDA-MB-231 cells assessed as reduction in body weight at 12.5 to 25 mg/kg/day, ip administered for 15 days; assay type: organism-based; conditions: in vivo, 360 h, dose 12.5-25 mg/kg/day, time 15 day
[7] = biological target: Nuclear receptor subfamily 4immunitygroup A member 1 (Homo sapiens) (UniProt P22736); assay: Antagonist activity at Nur77 (unknown origin) transfected in human HeLa cells at 31.25 uM incubated for 24 hrs by dual luciferase reporter assay; assay type: cell-based
Nuclear receptor subfamily 4immunitygroup A member 1 (Homo sapiens), sequence (P22736 whole entry): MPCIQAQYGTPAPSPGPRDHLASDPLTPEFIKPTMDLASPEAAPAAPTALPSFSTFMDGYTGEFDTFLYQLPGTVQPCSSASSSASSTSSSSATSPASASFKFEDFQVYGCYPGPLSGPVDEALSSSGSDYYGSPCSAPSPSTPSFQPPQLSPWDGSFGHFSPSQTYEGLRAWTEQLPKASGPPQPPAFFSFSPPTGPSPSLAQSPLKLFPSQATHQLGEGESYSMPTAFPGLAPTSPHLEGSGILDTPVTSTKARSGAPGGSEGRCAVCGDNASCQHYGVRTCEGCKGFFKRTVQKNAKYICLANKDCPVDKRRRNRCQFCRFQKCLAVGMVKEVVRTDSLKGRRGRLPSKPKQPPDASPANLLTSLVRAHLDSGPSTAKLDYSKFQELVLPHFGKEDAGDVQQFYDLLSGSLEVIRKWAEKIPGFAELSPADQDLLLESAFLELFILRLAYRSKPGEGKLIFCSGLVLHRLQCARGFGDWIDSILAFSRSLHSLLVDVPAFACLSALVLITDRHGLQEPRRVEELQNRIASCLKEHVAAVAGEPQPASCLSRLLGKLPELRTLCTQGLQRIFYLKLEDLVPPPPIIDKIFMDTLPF

A549 [8] = assay: Induction of apoptosis in human A549 cells assessed as dead cells at 250 nM incubated for 24 hrs by annexin V-FITC/PI staining based flow cytometry analysis (reference value: 0.75%); assay type: functional
MDA-MB-231 [9] = assay: Induction of cell cycle arrest in human MDA-MB-231 cells assessed as accumulation of cells at G2 phase at 62.5 nM incubated for 12 hrs by flow cytometry analysis (reference value: 15.91%); assay type: functional
MDA-MB-231 [10] = assay: Induction of apoptosis in human MDA-MB-231 cells assessed as live cells at 31.25 nM incubated for 24 hrs by annexin V-FITC/PI staining based flow cytometry analysis (reference value: 91.3%); assay type: functional
MCF7 = assay: Antiproliferative activity against human MCF7 cells assessed as inhibition of cell proliferation incubated for 72 hrs by MTT assay; assay type: functional, cell-based; conditions: MCF7, 72 h
MDA-MB-231 [11] = assay: Inhibition of colony formation in human MDA-MB-231 cells incubated for 48 hrs followed by replacement with normal culture medium and measured after […] by crystal violet staining based assay; assay type: functional, cell-based; conditions: dose 0.976-250 nM
[12] = Toxicity in BALB/c mouse xenografted with human MDA-MB-231 cells assessed as liver damage at 25 mg/kg/day, ip administered for 15 days by H and E staining based analysis; assay type: organism-based; conditions: in vivo, 360 h, time 15 day
A549 [13] = assay: Induction of apoptosis in human A549 cells assessed as early apoptotic cells at 31.25 nM incubated for 24 hrs by annexin V-FITC/PI staining based flow cytometry analysis (reference value: 0.78%); assay type: functional
MDA-MB-231 [14] = assay: Induction of cell cycle arrest in human MDA-MB-231 cells assessed as accumulation of cells at S phase at 125 nM incubated for 12 hrs by flow cytometry analysis (reference value: 40.89%); assay type: functional
[15] = Cmax in Sprague-Dawley rat at 25 mg/kg, ip measured for 48 hrs by LC-MS/MS analysis; assay type: ADME, organism-based; set-up: time 48 hrs, dose 25 mg/kg, route ip; conditions: in vivo
A549 [16] = assay: Induction of cell cycle arrest in human A549 cells assessed as accumulation of cells at G1 phase at 31.25 nM incubated for 12 hrs by flow cytometry analysis (reference value: 59.57%); assay type: functional
[17] = Toxicity in BALB/c mouse xenografted with human MDA-MB-231 cells assessed as kidney damage at 25 mg/kg/day, ip administered for 15 days by H and E staining based analysis; assay type: organism-based; conditions: in vivo, 360 h, time 15 day
[18] = Cytotoxicity against human L02 cells assessed as inhibition of cell proliferation incubated for 72 hrs by MTT assay; assay type: toxicity, cell-based
MDA-MB-231 [19] = assay: Antiproliferative activity against human MDA-MB-231 cells assessed as cell viability rate at 5 uM incubated for 72 hrs by MTT assay relative to control; assay type: functional
[20] = Cytotoxicity against human HaCaT cells assessed as inhibition of cell proliferation incubated for 72 hrs by MTT assay; assay type: toxicity, cell-based
MDA-MB-231 [21] = assay: Induction of cell cycle arrest in human MDA-MB-231 cells assessed as accumulation of cells at S phase at 15.625 nM incubated for 12 hrs by flow cytometry analysis (reference value: 40.89%); assay type: functional; conditions: 0.01562 µM
MDA-MB-231 [22] = assay: Induction of apoptosis in human MDA-MB-231 cells assessed as early apoptotic cells at 62.5 nM incubated for 24 hrs by annexin V-FITC/PI staining based flow cytometry analysis (reference value: 2.03%); assay type: functional
[23] = biological target: T2, Retinoic acid receptor RXR-alpha (Homo sapiens) (UniProt P19793); assay: Antagonist activity at RXRalpha (unknown origin) transfected in human HeLa cells assessed as inhibition of CD3254- induced receptor transactivation incubated for 24 hrs by dual luciferase reporter assay; assay type: cell-based; conditions: filed as antagonist, dose 12.5-100 µM
T2 sequence (whole entry): T1 sequence (P19793 whole entry)

[24] = Tmax in Sprague-Dawley rat at 25 mg/kg, ip measured for 48 hrs by LC-MS/MS analysis; assay type: ADME, organism-based; conditions: in vivo
MDA-MB-231 [25] = assay: Upregulation of phosphorylated RXRalpha protein level in human MDA-MB-231 cells at 125 to 500 nM measured after 24 hrs by Western blot analysis; assay type: functional, cell-based; conditions: dose 125-500 nM
MDA-MB-231 [26] = assay: Induction of RXRalpha-mediated mitotic arrest in human MDA-MB-231 cells assessed as accumulation of pRXRalpha protein at 7.8 to 500 nM measured after 24 hrs by Western blot analysis; assay type: functional, cell-based; conditions: dose 7.8-500 nM

Which Kd [1] does the source give for `O=C(/C=C/c1ccccc1)Nc1cc(-c2ccnc(N3CCC(CO)CC3)c2)ccn1` here?
Its Kd is 39.4 nM.

What about the Activity (MDA-MB-231 [2]) of the same compound?
Its Activity is “inactive”.

What about the AUC(0-inf) [3] of the same compound?
The AUC(0-inf) was 14600 ng·h/mL.

And the Activity (A549 [4])?
The Activity was 46.39%.

What about the Activity (A549 [5]) of the same compound?
Its Activity is 70.9%.

And the Activity [6]?
The Activity was “Non-Toxic”.

And the Activity [7]?
Its Activity is “inactive”.

What about the Activity (A549 [8]) of the same compound?
The Activity was 2.36%.

And the Activity (MDA-MB-231 [9])?
Its Activity is 81.68%.

And the Activity (MDA-MB-231 [10])?
Its Activity is 82.2%.

What about the IC50 (MCF7) of the same compound?
The IC50 was 2340 nM.

And the inhibition (MDA-MB-231 [11])?
Its inhibition is “Dose-Dependent Effect”.

And the Activity [12]?
Its Activity is “Non-Toxic”.

What about the Activity (A549 [13]) of the same compound?
The Activity was 6.28%.

What about the Activity (MDA-MB-231 [14]) of the same compound?
The Activity was 14.05%.

What about the Cmax [15] of the same compound?
The Cmax was 8080 ng/mL.

What about the Activity (A549 [16]) of the same compound?
Its Activity is 58.84%.

And the Activity [17]?
The Activity was “Non-Toxic”.

And the IC50 at 72 h [18]?
The IC50 at 72 h was 64 nM.

What about the Activity (MDA-MB-231 [19]) of the same compound?
The Activity was 31.72%.

And the IC50 at 72 h [20]?
The IC50 at 72 h was 51 nM.

What about the Activity (MDA-MB-231 [21]) of the same compound?
Its Activity is 41.47%.

And the Activity (MDA-MB-231 [22])?
Its Activity is 13.1%.

What about the inhibition [23] of the same compound?
Its inhibition is “Dose-Dependent Effect”.

And the Tmax [24]?
Its Tmax is 8.4 min.

And the Activity (MDA-MB-231 [25])?
Its Activity is “Active”.

What about the Activity (MDA-MB-231 [26]) of the same compound?
The Activity was “Active”.
